Read-outs that look alike come from different tables or passages of the source.
Key:
in vitro [1] = type: cell-based; conditions: 48 hrs, intracellular ATP
Description: Freshly isolated hepatocytes were incubated with various concentrations of […] for 48 hrs. Intracellular ATP content was measured (CellTiter-Glo luminescent cell viability assay) to determine cell cytotoxicity (CC50).

[2] = monkey plasma
in vitro [3] = type: cell-based; conditions: human; GS4.1 cells, Cell Titer 96 AQueous One Solution
Description: For cytotoxicity evaluation, GS4.1 cells were treated with compounds as described above and cellular viability was monitored using the Cell Titer 96 AQueous One Solution Cell Proliferation Assay (Promega). CC50 values were determined from the % cytotoxicity versus concentration data with Tecan Magellan software as described above.

human CYP450 2B6 = target: T1, human CYP450 2B6 (Homo sapiens, UniProt P20813); assay: CYP450 inhibition assay, 2B6; type: in vitro ADME
T1 construct: purchased BD Bioscience
Description: Compound 52 was incubated with human CYP450 cDNA-expressed isoenzymes according to the protocol (BD Bioscience). For CYP2C9, a luminogenic substrate was used with the P450-Glo™ kit. In addition, the effect of the compound on CYP2C9-mediated diclofenac metabolism was measured by LC-UV. The potential inhibitory effect of the compound on human UGT1A1 was examined using human liver microsomes and bilirubin as substrate. The metabolites (mono- and di-glucuronidated bilirubin) were measured by LC-UV.

[4] = human plasma
[5] = target: T2, HCV NS3-4A Protease Genotype 3a (Hepatitis C virus genotype 3a, UniProt Q81258); assay: HCV protease assay, recombinant NS3-4A genotype 3a; type: biochemical; conditions: mean ± SD, 3 experiments
T2 construct: recombinant HCV NS3-4A proteases
Description: (§1) The compounds were tested at a variety of concentrations in assay buffer containing a final DMSO concentration of 5%. Reactions were allowed to proceed for 60 min at room temperature and fluorescence measurements were recorded with a Tecan Infinity Spectrofluorimeter. The IC50 values were determined from the percent inhibition versus concentration data using a sigmoidal non-linear regression analysis based on four parameters with Tecan Magellan software.
(§2) Compound 52 was tested against genotypes 1a, 1b, 2a, 3a, and 4a of recombinant HCV NS3-4A proteases, along with other cellular proteases.

[6] = test system: B-1a cell line (genotype 1a replicon selected with 10 nM, D168A); assay: Extent of resistance after selection, B-1a; type: cell-based, HCV; conditions: selecting conc. 10 nM
Description: (§3) Replicon cells (genotype 1a or 1b) were treated with various concentrations of compound 52 in the presence of G418. Treatment-emergent genotypic changes were identified by population sequencing of NS3 (both protease and helicase regions). The activity of compound 52 and other compounds was evaluated by NS5A western blot after selection or luciferase assay during and after selection.

[7] = mouse plasma
[8] = test system: Zluc cell line (genotype 1b replicon with luciferase, unselected); assay: Extent of resistance after selection, luciferase assay, Zluc; type: cell-based, HCV; conditions: selecting conc. 0 nM, EC50 resistant / EC50 wild-type
Description: as §3

hERG channel = target: T3, hERG channel (Homo sapiens, UniProt Q12809); assay: hERG channel currents in voltage-clamped HEK293 cells; type: cell-based
T3 construct: expressed in transfected cells; host or cells: HEK293
Description: (§4) One in vitro GLP safety pharmacology study evaluated the effects of compound 52 on hERG channel currents in voltage-clamped human embryonic kidney cells (HEK293) stably expressing the human ether-à-go-go-related gene (hERG) channel. Four in vivo GLP safety pharmacology studies evaluated the potential effects of the compound on the cardiovascular and respiratory systems in the cynomolgus monkey and on the central nervous, renal, and gastrointestinal systems in the CD-1 mouse at single oral doses up to 250 mg/kg of compound 52.

[9] = target: T4, HCV NS3-4A Protease Genotype 1a (Hepatitis C virus genotype 1a, UniProt P27958); assay: HCV protease assay, recombinant NS3-4A genotype 1a; type: biochemical; conditions: mean ± SD, 3 experiments
T4 construct: recombinant HCV NS3-4A proteases
Description: as §1, §2

[10] = test system: S. typhimurium and E. coli; assay: Bacterial mutation test; type: cell-based; conditions: up to 5,000 μg/plate, with and without S9
Description: The potential for compound 52 to induce mutations in a bacterial system (S. typhimurium and E. coli—at concentrations up to 5,000 μg/plate), to induce chromosomal aberrations in cultures of human peripheral blood lymphocytes (at concentrations up to 84 μg/mL), and to induce clastogenic and/or aneugenic activity in CD-1 mice (at oral doses up to 2,000 mg/kg) was evaluated. The two in vitro studies were performed with and without the addition of a mammalian metabolic activation system (rat liver S9 subcellular fraction).

[11] = test system: central nervous, renal, and gastrointestinal systems of mice; design: species or system CD-1 mouse; conditions: mouse, in vivo
Description: as §4

in vivo = conditions: for Mean concentration, Heart / Mean concentration, Liver / Mean concentration, Plasma / Kp: single 2 mg/kg oral dose; for AUC(0-inf) / C24 h / F / AUC(0-t) / Vd / clearance / half-life / Cmax / Tmax / Kp: 2 mg/kg
Description: Male mice (3/time point) and monkeys (3/dose group) were given a single IV or PO dose of compound 52 in a PEG-based vehicle. The compound was quantified in liver (LLOQ=25 ng/g) and heart (LLOQ=50 ng/g) tissue (mice only) and in plasma samples (LLOQ=5 ng/mL) after liquid-liquid extraction by HPLC-MS/MS. Six healthy volunteers were given a single 200 mg dose of the compound using the selected tablet formulation and plasma concentrations were similarly determined (LLOQ=2 ng/mL). PK parameters were calculated using WinNonlin.

T1 sequence (P20813 whole entry): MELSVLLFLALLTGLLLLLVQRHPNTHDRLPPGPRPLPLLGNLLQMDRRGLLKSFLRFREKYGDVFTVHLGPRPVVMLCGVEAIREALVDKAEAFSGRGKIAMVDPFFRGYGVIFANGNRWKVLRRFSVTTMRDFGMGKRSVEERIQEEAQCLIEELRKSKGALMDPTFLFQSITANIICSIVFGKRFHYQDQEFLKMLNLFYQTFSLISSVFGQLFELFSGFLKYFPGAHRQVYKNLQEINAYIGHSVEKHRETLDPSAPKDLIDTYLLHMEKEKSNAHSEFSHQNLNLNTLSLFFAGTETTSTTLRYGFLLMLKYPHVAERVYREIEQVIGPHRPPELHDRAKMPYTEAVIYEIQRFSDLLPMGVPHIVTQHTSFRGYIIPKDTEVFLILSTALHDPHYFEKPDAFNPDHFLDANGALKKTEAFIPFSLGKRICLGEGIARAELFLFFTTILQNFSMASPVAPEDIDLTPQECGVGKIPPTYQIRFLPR
T2 sequence (Q81258 1664-1717): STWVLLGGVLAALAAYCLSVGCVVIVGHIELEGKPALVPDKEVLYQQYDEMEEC
T2 sequence (Q81258 1033-1663): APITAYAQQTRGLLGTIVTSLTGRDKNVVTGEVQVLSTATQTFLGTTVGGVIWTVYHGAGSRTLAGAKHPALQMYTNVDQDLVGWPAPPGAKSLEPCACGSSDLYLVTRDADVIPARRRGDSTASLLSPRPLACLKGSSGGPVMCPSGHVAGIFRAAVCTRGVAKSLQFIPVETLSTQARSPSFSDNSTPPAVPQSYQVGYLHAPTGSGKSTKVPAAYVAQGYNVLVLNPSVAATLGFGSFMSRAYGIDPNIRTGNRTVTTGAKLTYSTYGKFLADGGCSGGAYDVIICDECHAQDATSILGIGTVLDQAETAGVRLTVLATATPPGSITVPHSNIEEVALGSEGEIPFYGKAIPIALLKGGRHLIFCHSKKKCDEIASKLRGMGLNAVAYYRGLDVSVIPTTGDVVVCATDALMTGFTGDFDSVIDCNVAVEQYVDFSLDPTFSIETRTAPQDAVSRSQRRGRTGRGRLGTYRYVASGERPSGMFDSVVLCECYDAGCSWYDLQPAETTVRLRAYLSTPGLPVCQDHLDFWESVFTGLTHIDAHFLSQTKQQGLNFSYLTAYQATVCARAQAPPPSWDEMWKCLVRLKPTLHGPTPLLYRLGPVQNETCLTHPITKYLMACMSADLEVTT
T3 sequence (Q12809 whole entry): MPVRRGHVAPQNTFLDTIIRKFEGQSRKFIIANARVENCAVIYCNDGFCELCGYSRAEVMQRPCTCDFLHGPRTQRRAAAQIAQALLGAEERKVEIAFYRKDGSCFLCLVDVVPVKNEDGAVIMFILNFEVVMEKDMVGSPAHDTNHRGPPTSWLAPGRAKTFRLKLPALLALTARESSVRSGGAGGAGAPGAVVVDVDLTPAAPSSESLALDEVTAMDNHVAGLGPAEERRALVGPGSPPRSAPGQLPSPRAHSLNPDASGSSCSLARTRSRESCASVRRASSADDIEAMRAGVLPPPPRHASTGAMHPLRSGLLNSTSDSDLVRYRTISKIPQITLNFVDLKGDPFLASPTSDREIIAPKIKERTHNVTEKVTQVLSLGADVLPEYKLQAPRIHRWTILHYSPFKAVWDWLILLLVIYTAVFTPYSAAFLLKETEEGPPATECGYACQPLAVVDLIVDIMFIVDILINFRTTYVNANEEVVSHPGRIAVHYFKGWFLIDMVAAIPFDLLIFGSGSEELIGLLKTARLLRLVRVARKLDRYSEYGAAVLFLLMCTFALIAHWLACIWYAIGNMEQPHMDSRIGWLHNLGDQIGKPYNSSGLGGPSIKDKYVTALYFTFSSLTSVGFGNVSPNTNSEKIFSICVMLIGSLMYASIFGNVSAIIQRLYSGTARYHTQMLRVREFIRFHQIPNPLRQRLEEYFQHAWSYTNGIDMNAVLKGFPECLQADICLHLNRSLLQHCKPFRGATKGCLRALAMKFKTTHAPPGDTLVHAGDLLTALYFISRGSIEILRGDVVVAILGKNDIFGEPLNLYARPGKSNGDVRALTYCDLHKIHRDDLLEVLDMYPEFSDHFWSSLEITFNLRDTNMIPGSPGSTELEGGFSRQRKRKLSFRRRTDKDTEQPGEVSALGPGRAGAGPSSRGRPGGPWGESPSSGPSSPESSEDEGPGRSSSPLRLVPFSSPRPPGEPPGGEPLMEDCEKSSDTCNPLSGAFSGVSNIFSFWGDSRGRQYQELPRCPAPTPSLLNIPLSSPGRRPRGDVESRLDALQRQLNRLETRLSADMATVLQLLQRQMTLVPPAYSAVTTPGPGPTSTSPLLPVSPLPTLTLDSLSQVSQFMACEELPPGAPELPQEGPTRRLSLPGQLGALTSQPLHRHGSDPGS
T4 sequence (P27958 1658-1711): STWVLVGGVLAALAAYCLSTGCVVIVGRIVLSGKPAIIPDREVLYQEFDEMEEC
T4 sequence (P27958 1027-1657): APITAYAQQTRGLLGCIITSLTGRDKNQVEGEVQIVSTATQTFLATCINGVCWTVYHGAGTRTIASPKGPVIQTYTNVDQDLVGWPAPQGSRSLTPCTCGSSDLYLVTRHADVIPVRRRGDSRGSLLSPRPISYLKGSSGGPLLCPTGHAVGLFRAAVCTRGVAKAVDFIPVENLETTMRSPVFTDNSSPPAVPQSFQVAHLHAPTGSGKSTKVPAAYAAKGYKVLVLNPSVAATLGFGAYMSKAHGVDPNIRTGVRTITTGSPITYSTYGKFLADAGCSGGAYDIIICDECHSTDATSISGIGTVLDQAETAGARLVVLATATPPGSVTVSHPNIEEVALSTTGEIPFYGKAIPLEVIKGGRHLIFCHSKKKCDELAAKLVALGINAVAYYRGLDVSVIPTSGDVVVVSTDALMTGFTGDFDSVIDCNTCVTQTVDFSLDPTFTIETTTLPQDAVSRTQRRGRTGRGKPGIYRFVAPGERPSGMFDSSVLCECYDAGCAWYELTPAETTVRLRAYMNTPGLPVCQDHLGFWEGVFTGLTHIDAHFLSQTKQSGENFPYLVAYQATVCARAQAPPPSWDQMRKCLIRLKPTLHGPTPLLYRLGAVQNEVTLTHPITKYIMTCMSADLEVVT

`COc1ccc2c(O[C@H]3CCN4C(=O)N(C)CCCC/C=C\[C@@H]5C[C@@]5(C(=O)NS(=O)(=O)C5(C)CC5)NC(=O)[C@@H]4C3)cc(-c3nc(C(F)(F)F)cs3)nc2c1C` [Compound 52, 1-methyl-cyclopropanesulfonic acid{(Z)-(1S,4R,6S,18S)-18-[7-methoxy-8-methyl-2-(4-trifluoromethyl-thiazol-2-yl)-quinolin-4-yloxy]-13-methyl-2,14-dioxo-3,13,15-triaza-tricyclo[13.4.0.0*4,6*]nonadec-7-ene-4-carbonyl}amide] gave a CC50 (in vitro [1]; fresh human hepatocytes) of over 10 µM, a CC50 (in vitro [1]; fresh monkey hepatocytes) of over 10 µM and a CC50 (in vitro [1]; fresh mouse hepatocytes) of over 10 µM. The CC50 (in vitro [1]; fresh rat hepatocytes) was over 10 µM, the “protein bound in plasma” value [2] was 99.9% and the CC50 (in vitro [3]) was 10 to 75 µM. For the same molecule, the IC50 (human CYP450 2B6) was at least 10 µM, the “protein bound in plasma” value [4] was 99.6% and the IC50 [5] was 0.023 ± 0.0019 µM. The Fold-Change [6] was over 3690, the “protein bound in plasma” value [7] was 99.2% and the Fold-Change [8] was 1. For the same molecule, the “effect on cardiac hERG potassium channel current” value (hERG channel) was “did not affect”, the IC50 [9] was 0.0011 ± 0.0001 µM and the “genotoxicity, bacterial mutation test” value [10] was “no genotoxicity”. The “effects on the central nervous system, renal function, or gastrointestinal motility” value [11] was “no effects”, the “Mean concentration, Heart” value (in vivo; 2 hr) was 144 ng/g and the “Mean concentration, Liver” value (in vivo; 2 hr) was 4410 ng/g. For the same molecule, the “Mean concentration, Plasma” value (in vivo; 2 hr) was 174 ng/mL, the “Mean concentration, Heart” value (in vivo; 6 hr) was 93.0 ng/g and the “Mean concentration, Liver” value (in vivo; 6 hr) was 3540 ng/g. For the same molecule, the “Mean concentration, Plasma” value (in vivo; 6 hr) was 121 ng/mL, the “Mean concentration, Liver” value (in vivo; 24 hr) was 57.6 ng/g and the “Mean concentration, Plasma” value (in vivo; 24 hr) was 1.45 ng/mL. For the same molecule, the “Mean concentration, Heart” value (in vivo; 24 hr, BLQ = below 50 ng/g) was “BLQ^2”, the AUC(0-inf) (in vivo; cynomolgus monkey, po) was 8920 ± 2190 ng·h/mL and the C24 h (in vivo; cynomolgus monkey, po) was 81 ± 47 ng/mL. The F (in vivo; cynomolgus monkey, po) was 107 ± 40%, the AUC(0-t) (in vivo; male, CD-1, mouse, in vivo, iv) was 4060 ng·h/mL and the C24 h (in vivo; male, CD-1, mouse, in vivo, iv) was 7.9 ± 11 ng/mL. It also gave a Vd (in vivo; male, CD-1, mouse, in vivo, iv) of 4.4 L/kg, a clearance (in vivo; male, CD-1, mouse, in vivo, iv) of 8 mL/min/kg and a half-life (in vivo; male, CD-1, mouse, in vivo, iv) of 6.3 h. The AUC(0-t) (in vivo; male, CD-1, mouse, in vivo, po) was 1410 ng·h/mL, the C24 h (in vivo; male, CD-1, mouse, in vivo, po) was 1.5 ± 0.3 ng/mL and the Cmax (in vivo; male, CD-1, mouse, in vivo, po) was 174 ng/mL. The F (in vivo; male, CD-1, mouse, in vivo, po) was 34.7%, the Tmax (in vivo; male, CD-1, mouse, in vivo, po) was 2 h and the Kp (in vivo; male, CD-1, mouse, in vivo, po, Mean concentration ratio Heart/Plasma, 2 hr) was 0.79. The Kp (in vivo; male, CD-1, mouse, in vivo, po, Mean concentration ratio Heart/Plasma, 6 hr) was 0.78, the Kp (in vivo; male, CD-1, mouse, in vivo, po, Mean concentration ratio Liver/Plasma, 2 hr) was 27 and the Kp (in vivo; male, CD-1, mouse, in vivo, po, Mean concentration ratio Liver/Plasma, 6 hr) was 30. For the same molecule, the Kp (in vivo; male, CD-1, mouse, in vivo, po, Mean concentration ratio Liver/Plasma, 24 hr) was 39, the AUC(0-inf) (in vivo; male, cynomolgus monkey, iv) was 9580 ± 1420 ng·h/mL and the C24 h (in vivo; male, cynomolgus monkey, iv) was 66 ± 26 ng/mL. For the same molecule, the Vd (in vivo; male, cynomolgus monkey, iv) was 3.5 ± 0.5 L/kg, the clearance (in vivo; male, cynomolgus monkey, iv) was 3.83 mL/min/kg and the half-life (in vivo; male, cynomolgus monkey, iv) was 10.3 ± 1 h. The Cmax (in vivo; male, cynomolgus monkey, po) was 1030 ± 270 ng/mL, the Tmax (in vivo; male, cynomolgus monkey, po) was 1 h and the half-life (in vivo; male, cynomolgus monkey, po) was 7.6 ± 2 h. For the same molecule, the “clearance relative to hepatic blood flow” value (in vivo; mouse) was −9 % of hepatic blood flow.
